Test results taken from ChEMBL document CHEMBL5241092, “The antibacterial activity of fluoroquinolone derivatives: An update (2018-2021)” (2021).
Converted amounts (≈) assume the structure as drawn.

Tests used:
Clostridioides difficile = assay: Antibacterial activity against Clostridioides difficile; assay type: functional
Bacillus subtilis = assay: Antibacterial activity against Bacillus subtilis; assay type: functional
[1] = tested on: Staphylococcus epidermidis; assay: Antibacterial activity against Staphylococcus epidermidis; assay type: functional
Staphylococcus aureus [2] = assay: Antibacterial activity against Staphylococcus aureus; assay type: functional
Staphylococcus aureus [3] = assay: Antibacterial activity against fluoroquinolone sensitive Staphylococcus aureus; assay type: functional
Staphylococcus aureus [4] = assay: Antibacterial activity against fluoroquinolone/methicillin resistant Staphylococcus aureus; assay type: functional
Staphylococcus aureus [5] = assay: Potency index, ratio of levofloxacin MIC to test compound MIC for antibacterial activity against fluoroquinolone/methicillin resistant Staphylococcus aureus; assay type: functional
Pseudomonas aeruginosa [6] = assay: Antibacterial activity against Pseudomonas aeruginosa; assay type: functional
Escherichia coli [7] = assay: Antibacterial activity against Escherichia coli; assay type: functional
Salmonella enteritidis = assay: Antibacterial activity against Salmonella enteritidis; assay type: functional, Salmonella enterica subsp. enterica serovar Enteritidis; conditions: Salmonella enterica
Staphylococcus aureus [8] = assay: Antibacterial activity against methicillin resistant Staphylococcus aureus; assay type: functional
Streptococcus pneumoniae = assay: Antibacterial activity against Streptococcus pneumoniae; assay type: functional
Staphylococcus aureus [9] = assay: Antibacterial activity against methicillin susceptible Staphylococcus aureus; assay type: functional
Klebsiella pneumoniae = assay: Antibacterial activity against Klebsiella pneumoniae; assay type: functional
Staphylococcus aureus [10] = assay: Antibacterial activity against methicillin resistant Staphylococcus aureus clinical strain; assay type: functional
Staphylococcus aureus [11] = assay: Antibacterial activity against methicillin resistant Staphylococcus aureus reference strain; assay type: functional
Escherichia coli [12] = assay: Potency index, ratio of levofloxacin MIC to test compound MIC for quinolone resistant Escherichia coli; assay type: functional
Acinetobacter baumannii [13] = assay: Antibacterial activity against quinolone resistant Acinetobacter baumannii; assay type: functional
Pseudomonas aeruginosa [14] = assay: Antibacterial activity against quinolone susceptible Pseudomonas aeruginosa; assay type: functional
Pseudomonas aeruginosa [15] = assay: Antibacterial activity against quinolone resistant Pseudomonas aeruginosa; assay type: functional
Acinetobacter baumannii [16] = assay: Potency index, ratio of levofloxacin MIC to test compound MIC for quinolone resistant Acinetobacter baumannii; assay type: functional
Pseudomonas aeruginosa [17] = assay: Potency index, ratio of levofloxacin MIC to test compound MIC for quinolone resistant Pseudomonas aeruginosa; assay type: functional
Escherichia coli [18] = assay: Antibacterial activity against quinolone susceptible Escherichia coli; assay type: functional
Escherichia coli [19] = assay: Antibacterial activity against quinolone resistant Escherichia coli; assay type: functional
Escherichia coli [20] = assay: Antibacterial activity against ciprofloxacin resistant Escherichia coli; assay type: functional
Vibrio cholerae = assay: Antibacterial activity against Vibrio cholerae; assay type: functional
Chlamydia trachomatis = assay: Antibacterial activity against Chlamydia trachomatis; assay type: functional
Shigella flexneri = assay: Antibacterial activity against Shigella flexneri; assay type: functional
Priestia megaterium = assay: Antibacterial activity against Bacillus megaterium; assay type: functional
Micrococcus luteus = assay: Antibacterial activity against Micrococcus luteus; assay type: functional
Staphylococcus aureus [21] = assay: Antibacterial activity against ciprofloxacin resistant Staphylococcus aureus; assay type: functional
Citrobacter freundii = assay: Antibacterial activity against Citrobacter freundii; assay type: functional
[22] = Antibacterial activity against Salmonella typhi; assay type: functional, Salmonella enterica subsp. enterica serovar Typhimurium; conditions: Salmonella enterica

Cc1ncc([N+](=O)[O-])n1CCO [METRONIDAZOLE]
MIC50 (Clostridioides difficile): 2 µg/mL (≈ 11.7 µM) | MIC90 (Clostridioides difficile): 4 µg/mL (≈ 23.4 µM)

CCOc1cc(OCC)nc(/N=N/N2CCN(c3cc4c(cc3F)c(=O)c(C(=O)C(C(=O)OC)C(=O)OC)cn4C3CC3)CC2)n1
MIC (Bacillus subtilis): 0.015 µg/mL (≈ 0.0235 µM) | MIC [1]: 0.015 µg/mL (≈ 0.0235 µM) | MIC (Staphylococcus aureus [2]): 0.015 µg/mL (≈ 0.0235 µM)

C[C@H]1COc2c(N3C4CCC3CC(OC(=O)CCl)C4)c(F)cc3c(=O)c(C(=O)O)cn1c23 (stereo partly drawn)
MIC (Staphylococcus aureus [3]): ≤ 0.5 µg/mL | MIC (Staphylococcus aureus [4]): ≤ 0.5 µg/mL | Ratio (Staphylococcus aureus [5]): 4

CCn1cc(C(=O)O)c(=O)c2cc(F)c(N3CCN(C(=O)CN4C(=O)S/C(=C\c5ccc(N(C)C)cc5)C4=O)CC3)cc21
MIC (Pseudomonas aeruginosa [6]): 0.25 µg/mL (≈ 0.411 µM) | MIC (Escherichia coli [7]): 0.25 µg/mL (≈ 0.411 µM) | MIC (Salmonella enteritidis): 0.25 µg/mL (≈ 0.411 µM)

COc1ccc2nc(CN3CCN(c4cc5c(cc4F)c(=O)c(C(=O)O)cn5-c4ccc(F)cc4)CC3)[nH]c(=O)c2c1
MIC (Staphylococcus aureus [8]): 0.125 µg/mL (≈ 0.218 µM) | MIC (Staphylococcus aureus [2]): 0.125 µg/mL (≈ 0.218 µM)

CCn1cc(C(=O)O)c(=O)c2cc(F)c(N3CCN(C(=O)CN4C(=O)S/C(=C\c5ccccc5)C4=O)CC3)cc21
MIC (Pseudomonas aeruginosa [6]): 0.5 µg/mL (≈ 0.886 µM) | MIC (Escherichia coli [7]): 0.5 µg/mL (≈ 0.886 µM) | MIC (Salmonella enteritidis): 0.5 µg/mL (≈ 0.886 µM)

C[C@H]1COc2c(N3C4CCC3CC(O)C4)c(F)cc3c(=O)c(C(=O)O)cn1c23 (stereo partly drawn)
MIC (Staphylococcus aureus [3]): ≤ 0.5 µg/mL | Ratio (Staphylococcus aureus [5]): 4

COc1c(N2CCNC(C)C2)c(F)cc2c(=O)c(C(=O)O)cn(C3CC3)c12 (stereo not drawn) [GATIFLOXACIN]
MIC (Streptococcus pneumoniae): 0.06 µg/mL (≈ 0.16 µM) | MIC (Staphylococcus aureus [2]): 0.06 µg/mL (≈ 0.16 µM) | MIC (Staphylococcus aureus [9]): 0.06 µg/mL (≈ 0.16 µM)

O=C(O)c1cn(C2CC2)c2cc(N3CCN(Cc4nc5ccc(Cl)cc5c(=O)[nH]4)CC3)c(F)cc2c1=O
MIC (Staphylococcus aureus [8]): 0.016 µg/mL (≈ 0.0305 µM) | MIC (Staphylococcus aureus [2]): 0.016 µg/mL (≈ 0.0305 µM)

CCOc1cc(OCC)nc(/N=N/N2CCN(c3c(F)cc4c(=O)c(C(=O)C(C(C)=O)C(=O)OC)cn(C5CC5)c4c3OC)CC2)n1 (stereo not drawn)
MIC (Bacillus subtilis): 0.015 µg/mL (≈ 0.0229 µM) | MIC [1]: 0.015 µg/mL (≈ 0.0229 µM) | MIC (Staphylococcus aureus [2]): 0.015 µg/mL (≈ 0.0229 µM)

COc1ccc2nc(CN3CCN(c4cc5c(cc4F)c(=O)c(C(=O)O)cn5C4CC4)CC3)[nH]c(=O)c2c1
MIC (Staphylococcus aureus [8]): 0.016 µg/mL (≈ 0.0308 µM) | MIC (Staphylococcus aureus [2]): 0.016 µg/mL (≈ 0.0308 µM)

O=C(O)c1cn(C2CC2)c2cc(N3CCN(Cc4c(O)ccc5ccccc45)CC3)c(F)cc2c1=O
MIC (Pseudomonas aeruginosa [6]): 0.012 µg/mL (≈ 0.0246 µM) | MIC (Klebsiella pneumoniae): 0.012 µg/mL (≈ 0.0246 µM) | MIC (Escherichia coli [7]): 0.012 µg/mL (≈ 0.0246 µM) | MIC (Staphylococcus aureus [10]): 0.012 µg/mL (≈ 0.0246 µM) | MIC (Staphylococcus aureus [11]): 0.012 µg/mL (≈ 0.0246 µM)

COc1c(N2CCN(/N=N/c3nc(C)cc(C)n3)CC2)c(F)cc2c(=O)c(C(=O)C(C(C)=O)C(C)=O)cn(C3CC3)c12
MIC (Bacillus subtilis): 0.015 µg/mL (≈ 0.026 µM) | MIC [1]: 0.015 µg/mL (≈ 0.026 µM) | MIC (Staphylococcus aureus [2]): 0.015 µg/mL (≈ 0.026 µM)

CCn1cc(C(=O)O)c(=O)c2cc(F)c(N3CCN(C(=O)CN4C(=O)S/C(=C\c5ccc(Cl)cc5)C4=O)CC3)cc21
MIC (Pseudomonas aeruginosa [6]): 0.25 µg/mL (≈ 0.417 µM) | MIC (Escherichia coli [7]): 0.25 µg/mL (≈ 0.417 µM) | MIC (Salmonella enteritidis): 0.25 µg/mL (≈ 0.417 µM)

CNC1CN(c2c(F)c(C)c3c(=O)c(C(=O)O)cn(-c4cc(N)c(F)cc4CO)c3c2Cl)C1
Ratio (Escherichia coli [12]): 2 | MIC (Acinetobacter baumannii [13]): 0.12 µg/mL (≈ 0.251 µM) | MIC (Pseudomonas aeruginosa [14]): 0.008 µg/mL (≈ 0.0167 µM) | MIC (Pseudomonas aeruginosa [15]): 0.12 µg/mL (≈ 0.251 µM) | Ratio (Acinetobacter baumannii [16]): 2 | Ratio (Pseudomonas aeruginosa [17]): 2 | MIC (Escherichia coli [18]): 0.008 µg/mL (≈ 0.0167 µM) | MIC (Escherichia coli [19]): 0.12 µg/mL (≈ 0.251 µM)

COc1cc(C=O)cc(CN2CCN(c3cc4c(cc3F)c(=O)c(C(=O)O)cn4C3CC3)CC2)c1O
MIC (Pseudomonas aeruginosa [6]): 0.012 µg/mL (≈ 0.0242 µM) | MIC (Klebsiella pneumoniae): 0.012 µg/mL (≈ 0.0242 µM) | MIC (Escherichia coli [7]): 0.012 µg/mL (≈ 0.0242 µM) | MIC (Staphylococcus aureus [10]): 0.012 µg/mL (≈ 0.0242 µM) | MIC (Staphylococcus aureus [11]): 0.012 µg/mL (≈ 0.0242 µM)

O=C(O)c1cn(C2CC2)c2cc(N3CCNCC3)c(F)cc2c1=O [CIPROFLOXACIN]
MIC (Pseudomonas aeruginosa [6]): 0.012 µg/mL (≈ 0.0362 µM) | MIC (Bacillus subtilis): 0.015 µg/mL (≈ 0.0453 µM) | MIC (Acinetobacter baumannii [13]): 16 µg/mL (≈ 48.3 µM) | MIC (Escherichia coli [20]): 20.5 µg/mL (≈ 61.9 µM) | MIC (Pseudomonas aeruginosa [14]): 0.008 µg/mL (≈ 0.0241 µM) | MIC (Pseudomonas aeruginosa [15]): 16 µg/mL (≈ 48.3 µM) | MIC (Klebsiella pneumoniae): 0.15 µg/mL (≈ 0.453 µM) | MIC (Vibrio cholerae): 0.15 µg/mL (≈ 0.453 µM) | MIC [1]: 0.015 µg/mL (≈ 0.0453 µM) | MIC (Staphylococcus aureus [2]): 0.015 µg/mL (≈ 0.0453 µM) | MBC (Chlamydia trachomatis): > 50 µg/mL | MIC (Shigella flexneri): 0.15 µg/mL (≈ 0.453 µM) | MIC (Staphylococcus aureus [9]): 0.195 µg/mL (≈ 0.589 µM) | MIC (Priestia megaterium): 7.8 µg/mL (≈ 23.5 µM) | MIC (Micrococcus luteus): 7.8 µg/mL (≈ 23.5 µM) | MIC (Staphylococcus aureus [21]): 20.5 µg/mL (≈ 61.9 µM) | MIC (Citrobacter freundii): 0.15 µg/mL (≈ 0.453 µM) | MIC [22]: 0.15 µg/mL (≈ 0.453 µM)

CCn1cc(C(=O)O)c(=O)c2cc(F)c(N3CCN(C(=O)CN4C(=O)S/C(=C\c5ccc(F)cc5)C4=O)CC3)cc21
MIC (Pseudomonas aeruginosa [6]): 0.25 µg/mL (≈ 0.429 µM) | MIC (Escherichia coli [7]): 0.25 µg/mL (≈ 0.429 µM) | MIC (Salmonella enteritidis): 0.25 µg/mL (≈ 0.429 µM)

O=C(O)c1cn(C2CC2)c2cc(N3CCN(Cc4cc5ccccc5cc4O)CC3)c(F)cc2c1=O
MIC (Staphylococcus aureus [10]): 0.2 µg/mL (≈ 0.41 µM) | MIC (Staphylococcus aureus [11]): 0.08 µg/mL (≈ 0.164 µM)

CCn1cc(C(=O)O)c(=O)c2cc(F)c(N3CCN(C(=O)CN4C(=O)S/C(=C\c5ccc(OC)cc5)C4=O)CC3)cc21
MIC (Pseudomonas aeruginosa [6]): 0.25 µg/mL (≈ 0.42 µM) | MIC (Escherichia coli [7]): 0.25 µg/mL (≈ 0.42 µM) | MIC (Salmonella enteritidis): 0.25 µg/mL (≈ 0.42 µM)
